Experiments:
[1] = tested on: Hs-578t breast cancer cells; assay: Tumor growth of Hs-578t xenograft in irradiated NOD/SCID/β2m−/− mice reconstituted with DCs and T cells; assay type: in vivo
Protocol: (§1) NOD/SCID/β2 m^−/− mice ([…]) were sublethally irradiated (12 cGy/g body weight of 137Cs γ irradiation) the day before tumor implantation. Then 10 million Hs-578t breast cancer cells harvested from cultures were injected subcutaneously into the flanks. Mice were then reconstituted with 1 million monocyte-derived DCs (MDDCs) and autologous T cells. CD4^+ and CD8^+ T cells were positively selected from thawed PBMCs using magnetic selection according to the manufacturer's instructions (Miltenyi Biotec). The purity was routinely >90%. 10 million CD4^+ T cells and 10 million CD8^+ T cells were transferred at days 3, 6, and 9 after tumor implantation. MDDCs were generated from the adherent fraction of PBMCs by culturing with 100 ng/ml GM-CSF and 10 ng/ml IL-4 (R&D Systems). Anakinra (2 mg/kg body weight) or PBS were injected daily in peritumor area since day 3 after tumor engraftment. 200 ug TSLPR blocking antibody was given on day 3,6,9. In some experiments, TGF-13 blocking antibody was given on day 3,6,9. Tumor size was monitored every 2-3 d. Tumor volume (ellipsoid) was calculated as follows: ([short diameter]^2×long diameter)/2. On day 16, the tumors were harvested. In some experiments, only one time DCs and total T cells transfer was done. Cell suspension was obtained from breast cancer tissue of above mice. Cell suspensions were obtained by digestion with 2.5 mg/ml of collagenase D (Roche Diagnostics, Indianapolis, Ind.), and 200 U/ml of DNAse I (Sigma-Aldrich, St. Louis, Mo.) for 30 minutes at 37° C. Washed three times and analyzed with FACS-CantoII (Becton Dickinson).
Thus, involvement of IL-1β in the TSLP-dependent in vivo model was evaluated. The availability of IL-1β in the xenograft mice model was first evaluated. HS-578t cells were injected subcutaneously into the flank of irradiated NOD/SCID/β2 m^−/− mice. MDDCs plus autologous total T cells were injected intratumorally on D3,6, and 9 after tumor cells injection (FIG. 15A). When tumors grew to 100-150 mm^3 in volume, mice were sacrificed and tumors were frozen in OCT for tissue staining. Similar with what observed in patient primary tumors (FIG. 5), IL-1β^+ cells also infiltrated in the tumor of xenograft model (FIG. 15B). […] Then we tried to understand whether TGF-β or IL-1β blocking could affect tumor growth through affecting the availability of IL-1β. Anti-TGF-β neutralizing antibody, isotype antibody as control, IL-1R antagonist Anakinra, or anti-TSLPR neutralizing antibody were each injected together with DC plus T cells (FIG. 15A). […] In some experiments, small pieces of tumor tissue from mice were cultured for 16 hours in the presence of PMA and ionomycin. Th2 cytokines were measured by Luminex in the culture sups (FIG. 8B).

Th2 cytokines = assay: Cytokines by Luminex in supernatants of day 16 mouse tumor fragments stimulated with PMA and ionomycin; assay type: in vivo, mice; conditions: day 16 tumors; versus PBS group
Protocol: as §1
Thus, involvement of IL-1β in the TSLP-dependent in vivo model was evaluated. The availability of IL-1β in the xenograft mice model was first evaluated. HS-578t cells were injected subcutaneously into the flank of irradiated NOD/SCID/β2 m^−/− mice. MDDCs plus autologous total T cells were injected intratumorally on D3,6, and 9 after tumor cells injection (FIG. 15A). […] Th2 cytokines were measured by Luminex in the culture sups (FIG. 8B).

CD4^+CD3^+T cells = assay: Intracellular cytokine FACS of CD4+CD3+ T cells from xenograft tumors; assay type: in vivo, mice
Protocol: as §1
To confirm whether the decreased IL-13 level is due to less infiltration of IL-13 producing cells, single cell suspensions were prepared from the tumors harvested from both the PBS and the Anakinra treatment groups. Intracellular staining for cytokines including IL-13, IL-4, TNF-α, and IFN-γ were combined with CD4, CD3 surface staining. Cells were analyzed by FACS, and gated on viable CD4^+CD3^+T cells. […] In the PBS group, about 10.2-46.4% of CD4^+CD3^+T cells express IL-13. […]

[2] = pediatric patients with SOJIA; cited from earlier work
[3] = 100 mg daily SC; cited from earlier work
TAK1 [4] = assay: Phosphorylated TAK1 (FACS) in monocytes or mDCs; assay type: cell-based, human; conditions: monocytes; 10 ng/ml TGF-β1 for 5-90 minutes
TAK1 [5] = target: T1, TAK1 (Homo sapiens, UniProt O43318); assay: Caspase-1 activity (FACS) in monocytes treated with cancer-culture sups; assay type: cell-based; conditions: monocytes treated with cancer-culture sups 16 hours; 200 nm TAK1 inhibitor
T1 construct: endogenous in cells; host or cells: human blood monocytes, monocyte-derived DCs and blood mDCs
T1 sequence (O43318 1-606): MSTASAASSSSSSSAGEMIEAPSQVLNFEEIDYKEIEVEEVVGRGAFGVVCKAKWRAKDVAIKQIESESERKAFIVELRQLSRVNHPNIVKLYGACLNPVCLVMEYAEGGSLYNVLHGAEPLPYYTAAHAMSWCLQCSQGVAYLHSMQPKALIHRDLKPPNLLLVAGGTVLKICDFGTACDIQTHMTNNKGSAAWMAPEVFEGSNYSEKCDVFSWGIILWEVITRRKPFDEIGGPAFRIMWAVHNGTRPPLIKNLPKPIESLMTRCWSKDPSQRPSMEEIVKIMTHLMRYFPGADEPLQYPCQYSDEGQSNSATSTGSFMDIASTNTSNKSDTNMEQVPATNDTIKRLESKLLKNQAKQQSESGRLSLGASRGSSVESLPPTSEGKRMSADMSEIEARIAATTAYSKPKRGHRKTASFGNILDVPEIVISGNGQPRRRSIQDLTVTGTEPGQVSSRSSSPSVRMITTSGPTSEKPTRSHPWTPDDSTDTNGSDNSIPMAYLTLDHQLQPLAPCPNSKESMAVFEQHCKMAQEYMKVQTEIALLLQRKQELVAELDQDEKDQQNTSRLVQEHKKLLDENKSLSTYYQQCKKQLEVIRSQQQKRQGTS
Protocol: For surface staining, cells were incubated with the antibodies for 30 minutes at 4° C. in the dark, then washed three times and fixed with 1% paraformaldehyde to be analyzed in a FACS Canto (Becton Dickinson). […] For caspase-1 staining, cells were incubated with substrates (CaspaLux-E1D2, Oncolmmunin, Inc.) for 50 minutes at 37° C. and washed with washing buffer 2 times, then stained for surface markers for 10 minutes at room temperature.
Monocytes were treated with cancer-culture sups for 16 hours in the presence of a TAK1 specific inhibitor or DMSO as control. Caspase-1 activity was measured using the FACS based method. Cells were gated based on CD11c^+ viable cells.

TAK1 [6] = target: T1, TAK1; assay: IL-1β in co-culture of cancer cells and myeloid cells upon TAK1 inhibition; assay type: cell-based
Protocol: When mDCs were co-cultured with MDA-MB231 cells for 5-90 minutes, phosphorylated (p)TAK1 could only be detected after 60 minutes (FIG. 7D). To confirm that the phosphorylation of TAK1 is TGF-β mediated, TGF-β signaling blocking reagents (TGF-β neutralizing antibody and TGF-βR kinase inhibitor) were added to the co-culture of cancer cells and mDCs. […] To examine whether TAK1-signaling participate in modulation of IL-1β production, a co-culture of cancer cells and myeloid cells was used. […]

[7] = xenograft model, summary statement
[8] = tumors harvested from Anakinra treatment group

For “Anakinra: recombinant soluble non-glycosylated homolog of the human interleukin-1 receptor antagonist (IL-1Ra)”, the “tumor volume (mean)” value ([1]; day 16, Anakinra 2 mg/kg daily peritumoral since day 3) was 13 mm^3, the “tumor volume increase in PBS group compared to the Anakinra group” value ([1]; end of the observation, day 16) was ~10 fold and the “OX40L+ expression on DCs” value ([1]; in vivo) was “blocks OX40L+ expression on DCs”. For the same molecule, the “tumor growth in vivo” value [1, 7] was “prevents tumor growth in vivo”, the “IL-4 in tumor tissue culture sups” value (Th2 cytokines) was “less IL-4” and the “IL-13 in tumor tissue culture sups” value (Th2 cytokines) was “less IL-13”. The “TSLP production in tumor tissue” value (Th2 cytokines) was “less TSLP production”, the “CD4^+CD3^+T cells expressing IL-13” value (CD4^+CD3^+T cells; [8]) was 0.39-2.5% and the “effect on TNF-α and IFN-γ in CD4^+CD3^+T cells” value (CD4^+CD3^+T cells; [8]) was “no specific effect on TNF-α and IFN-γ”. For the same molecule, the “iTh2 generation in vivo” value (CD4^+CD3^+T cells; [7]) was “blocks iTh2 generation in vivo”, the “patients with remarkable clinical and hematological responses” value [2] was > 70 % of patients and the “most common adverse reaction” value [3] was “injection site reaction”. The safety profile [3] was “favorable safety profile”.
For “TGF-β1: soluble TGF-β1 used to treat monocytes”, the “phosphorylation of TAK1” value (TAK1 [4]) was “induce phosphorylation of TAK1 as early as 15 minutes”.
With `COc1cc(O)c2c(c1)/C=C/C[C@H](O)[C@H](O)C(=O)/C=C\C[C@H](C)OC2=O` [TAK1 inhibitor, 5z-7-oxozeaenol] the “activation of caspase-1 in monocytes” value (TAK1 [5]) was “prevented the activation of caspase-1”, the “IL-1β levels in co-culture supernatants (Luminex)” value (TAK1 [6]; cancer cells with monocytes, MDDC or mDC, 48 hours) was “Substantially lower amounts of IL-1β were secreted” and the “expression of IL-1β by mDCs and monocytes (intracellular staining)” value (TAK1 [6]; co-culture 16 hours) was “prevented the expression of IL-1β by mDCs and monocytes”.
